Source: publication PMC5111430 (ACS chemical biology, 2016)
Each block holds one molecule with its values, some of them ahead of it.

Legend:
[1] = biological target: 4R0N human recombinant tau (Homo sapiens, UniProt P10636, P618L); experiment: In vitro tau aggregation, thioflavin T fluorescence assay; type: biochemical; conditions: for effect on tau aggregation levels in vitro: ThT fluorescence, heparin-induced, 24 h
WT4R0N tau = type: cell-based, human; conditions: HEK293T, transient WT4R0N tau, 24 h; for effect on tau levels (Hsp70 inhibitor scaffolds): increasing concentrations up to 30 µM; for effect on tau levels (tau aggregation inhibitor scaffolds): increasing concentrations
[2] = biological target: Recombinant human Hsp70 and DnaJA2 (Homo sapiens, UniProt P0DMV8); experiment: Hsp70 ATPase malachite green assay; type: biochemical; conditions: 1 µM Hsp70, 1 µM DnaJA2, 1 mM ATP, 30 min preincubation, 3 h
Sequence of Recombinant human Hsp70 and DnaJA2 (P0DMV8 whole entry): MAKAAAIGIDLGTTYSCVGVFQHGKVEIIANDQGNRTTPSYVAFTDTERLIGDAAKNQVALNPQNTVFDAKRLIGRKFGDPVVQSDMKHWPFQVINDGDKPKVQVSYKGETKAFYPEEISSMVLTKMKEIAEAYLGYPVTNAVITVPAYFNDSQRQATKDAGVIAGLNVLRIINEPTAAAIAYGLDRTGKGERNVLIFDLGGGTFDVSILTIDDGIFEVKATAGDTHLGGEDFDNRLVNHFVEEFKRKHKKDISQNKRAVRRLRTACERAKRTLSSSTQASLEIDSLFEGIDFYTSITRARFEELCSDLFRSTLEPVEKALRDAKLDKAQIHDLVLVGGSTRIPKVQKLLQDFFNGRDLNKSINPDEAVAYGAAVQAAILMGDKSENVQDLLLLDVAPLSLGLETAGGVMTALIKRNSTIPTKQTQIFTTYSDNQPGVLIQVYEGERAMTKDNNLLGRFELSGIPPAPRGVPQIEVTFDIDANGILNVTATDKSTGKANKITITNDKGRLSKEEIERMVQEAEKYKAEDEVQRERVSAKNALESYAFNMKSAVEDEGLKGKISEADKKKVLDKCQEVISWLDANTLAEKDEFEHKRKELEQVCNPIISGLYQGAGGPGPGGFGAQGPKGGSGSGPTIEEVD

human recombinant tau = human recombinant tau (Homo sapiens, UniProt P10636, P618L); experiment: Nondenaturing gel electrophoresis of ThT samples, high molecular weight tau; type: biochemical; conditions: ThT samples incubated with 30 µM compound
Sequence of human recombinant tau (P10636 1-383 isoform P10636-6 P243L): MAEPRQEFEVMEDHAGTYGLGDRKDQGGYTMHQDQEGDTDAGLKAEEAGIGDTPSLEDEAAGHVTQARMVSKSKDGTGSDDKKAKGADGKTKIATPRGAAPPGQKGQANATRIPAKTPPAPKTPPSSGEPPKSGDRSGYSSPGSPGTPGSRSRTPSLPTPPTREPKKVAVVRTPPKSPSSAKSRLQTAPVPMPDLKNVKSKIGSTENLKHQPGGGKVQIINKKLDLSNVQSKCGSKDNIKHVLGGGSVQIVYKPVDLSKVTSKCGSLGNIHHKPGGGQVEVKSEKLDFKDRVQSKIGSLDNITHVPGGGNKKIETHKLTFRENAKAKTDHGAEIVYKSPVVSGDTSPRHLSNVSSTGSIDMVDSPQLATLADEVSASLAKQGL

HEK293T cells = experiment: LDH cytotoxicity assay; type: cell-based, human; conditions: increasing concentrations, 24 h, relative to DMSO
[3] = biological target: recombinant human P301L tau (Homo sapiens, UniProt P10636, P618L); experiment: Hydrogen peroxide production assay; type: biochemical; conditions: recombinant tau (10 µM) with 30 µM compound vs vehicle
Sequence of recombinant human P301L tau (P10636 1-383 isoform P10636-6 P243L): as above

Sequence of 4R0N human recombinant tau (P10636 1-383 isoform P10636-6 P243L): as above

effect on tau aggregation levels in vitro [1]: increased tau aggregation levels
Molecule: CCCn1c(NC(=O)[C@H]2CCCN(c3cnccn3)C2)nc2ccccc21 [piperidine-3-carboxamide, (S)-N-(1-propyl-1H-benzimidazol-2-yl)-1-(2-pyrazinyl)piperidine-3-carboxamide]
effect on tau levels (Hsp70 inhibitor scaffolds) (WT4R0N tau): increased tau levels

Molecule: Nc1scc2c(C(=O)NC3CC3)nn(-c3ccc(Cl)cc3)c(=O)c12 [ATPZ, 5-amino-3-(4-chlorophenyl)-N-cyclopropyl-4-oxo-3,4-dihydrothieno[3,4-d]pyridazine-1-carboxamide]
effect on tau levels (tau aggregation inhibitor scaffolds) (WT4R0N tau): did not lead to tau lowering

Molecule: 2-((Z)-5-((5-(3- chlorophenyl)furan -2-yl)methylene)-4-oxo-2- thioxothiazolidin-3- yl)ethanoic acid [rhodanine]
Hsp70 ATPase activity [2]: inhibited Hsp70 ATPase activity

effect on tau aggregation levels in vitro [1]: increased tau aggregation levels
Molecule: N#Cc1ccc(COC[C@H]2O[C@@H](n3c(NCc4ccc(Cl)c(Cl)c4)nc4c(N)ncnc43)[C@H](O)[C@@H]2O)cc1 [adenosine analog, 5'-O-[(4-Cyanophenyl)methyl]-8-[[(3,4-dichlorophenyl)methyl]amino]-adenosine]
effect on tau levels (Hsp70 inhibitor scaffolds) (WT4R0N tau): increased tau levels

Molecule: O=C1c2ccc(O)c(O)c2C(=O)c2c(O)ccc(O)c21 [anthraquinone, 1,2,5,8-Tetrahydroxy-9,10-anthraquinone, 1,2,5,8-Tetrahydroxyanthraquinone]
effect on tau levels at 30 µM (WT4R0N tau; 30 µM): effectively lowered tau levels
effect on tau levels (tau aggregation inhibitor scaffolds) (WT4R0N tau): lowered tau levels

Molecule: CN(C)c1ccc2nc3ccc(N(C)C)cc3[s+]c2c1.[Cl-] [phenothiazine, 3,7-bis(Dimethylamino)phenazat hionium chloride]
effect on high molecular weight tau (human recombinant tau): most potently reduced high molecular weight tau

IC50 [1]: 22.7 µM
Molecule: CC1=C(C(=O)OCc2ccccc2)C(c2ccc(-c3ccccc3)cc2)NC(=O)N1CCCCCC(=O)O (centres unmarked) [dihydropyrimidine, 4-[1,1'-Biphenyl]-4-yl-3,4-dihydro-6-methyl-2-oxo-5-[(phenylmethoxy)carbonyl]-1(2H)-pyrimidinehexanoic acid]

Molecule: 2-Phenylethynesulfonamide
LDH cytotoxicity (HEK293T cells): high toxicity relative to the other compounds

production of hydrogen peroxide [3]: no significant differences
IC50 [1]: 0.813 µM
Molecule: CCn1c(=O)/c(=C2\Sc3cc(Cl)ccc3N2C)s/c1=C\c1scc[n+]1Cc1ccccc1.[Cl-] [rhodacyanine, 3-benzyl-2-((Z)-((E)-5-(6-chloro-3-methylbenzo[d]thiazol-2(3H)-ylidene)-3-ethyl-4-oxothiazolidin-2-ylidene)methyl)thiazol-3-ium chloride]
effect on high molecular weight tau (human recombinant tau): most potently reduced high molecular weight tau
